The numbers were not newly measured in US20260021105A1, “METHOD FOR TREATING PSORIASIS” (Reviva Pharmaceuticals, Inc., priority 2023, published 2026), which cites them from elsewhere.

One data set deals with 5-HT2A (Homo sapiens, UniProt P28223). The conditions noted are these: as a weak partial agonist or neutral antagonist.
The test system of the next data set is D2-4 receptors. As to conditions: as partial agonist.
The next data set has as its target T1, 5-HT1A receptors (Homo sapiens, UniProt P08908).
T1 sequence (P08908 1-422): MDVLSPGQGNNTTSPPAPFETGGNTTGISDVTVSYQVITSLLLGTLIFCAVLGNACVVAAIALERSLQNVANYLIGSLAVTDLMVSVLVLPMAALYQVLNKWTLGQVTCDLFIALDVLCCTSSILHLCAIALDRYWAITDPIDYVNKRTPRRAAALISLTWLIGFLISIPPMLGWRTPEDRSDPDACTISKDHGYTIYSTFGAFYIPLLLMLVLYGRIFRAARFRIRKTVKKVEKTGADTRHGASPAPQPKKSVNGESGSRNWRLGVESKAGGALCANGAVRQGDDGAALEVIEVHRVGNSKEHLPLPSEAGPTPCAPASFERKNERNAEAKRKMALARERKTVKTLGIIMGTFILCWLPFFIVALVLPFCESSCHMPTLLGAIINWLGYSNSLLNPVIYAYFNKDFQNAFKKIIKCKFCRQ
As to conditions: as partial agonist.

Data set [1] has as its target serotonin transporter (SERT) (Homo sapiens, UniProt P31645).
For a further data set, the system named is 5-HT2B/7. The conditions noted are these: as an antagonist.

Chain of serotonin transporter (SERT) (P31645 whole entry, species assumed): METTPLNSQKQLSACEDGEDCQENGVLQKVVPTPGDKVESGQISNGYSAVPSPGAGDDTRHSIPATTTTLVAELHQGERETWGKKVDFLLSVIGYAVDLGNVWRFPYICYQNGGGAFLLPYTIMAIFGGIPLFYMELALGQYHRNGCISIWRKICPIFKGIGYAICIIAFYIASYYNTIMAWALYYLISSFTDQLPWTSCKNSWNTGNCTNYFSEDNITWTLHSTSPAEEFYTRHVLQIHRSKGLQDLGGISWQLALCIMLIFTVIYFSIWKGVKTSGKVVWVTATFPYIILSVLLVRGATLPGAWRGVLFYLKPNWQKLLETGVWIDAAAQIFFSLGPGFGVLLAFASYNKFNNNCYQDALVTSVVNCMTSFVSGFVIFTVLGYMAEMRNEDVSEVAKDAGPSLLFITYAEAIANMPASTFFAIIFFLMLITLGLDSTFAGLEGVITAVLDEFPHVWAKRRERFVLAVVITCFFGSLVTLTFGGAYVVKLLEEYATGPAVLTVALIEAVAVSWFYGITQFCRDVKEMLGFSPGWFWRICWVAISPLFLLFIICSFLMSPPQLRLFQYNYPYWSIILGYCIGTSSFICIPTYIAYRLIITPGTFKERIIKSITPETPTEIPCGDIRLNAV
Chain of 5-HT2A (P28223 whole entry, species assumed): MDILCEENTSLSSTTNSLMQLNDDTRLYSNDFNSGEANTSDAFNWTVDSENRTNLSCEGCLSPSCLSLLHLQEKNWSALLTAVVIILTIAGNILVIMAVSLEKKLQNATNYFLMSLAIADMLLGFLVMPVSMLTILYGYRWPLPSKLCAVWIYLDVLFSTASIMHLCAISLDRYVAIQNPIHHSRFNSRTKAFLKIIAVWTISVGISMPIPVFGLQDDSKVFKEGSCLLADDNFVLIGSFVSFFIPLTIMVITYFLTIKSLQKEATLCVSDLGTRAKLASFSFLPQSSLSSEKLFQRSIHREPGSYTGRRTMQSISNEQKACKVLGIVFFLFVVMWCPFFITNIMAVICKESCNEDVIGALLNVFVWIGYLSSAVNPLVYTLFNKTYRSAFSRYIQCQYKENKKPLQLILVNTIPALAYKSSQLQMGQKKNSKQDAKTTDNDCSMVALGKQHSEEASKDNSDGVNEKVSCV

Turning to `O=C1COc2ccc(OCCCCN3CCN(c4cccc(Cl)c4Cl)CC3)cc2N1` [Brilaroxazine], the binding affinity entry on 5-HT2A, in the data set with D2-4 receptors, on 5-HT1A receptors and in the data set on 5-HT2B/7 was “high binding affinity” throughout. Besides, in data set [1], the affinity entry was “moderate affinity”.
